According to patent US9212163B2, “Pesticidal compositions and processes related thereto” (Dow AgroSciences LLC, priority 2012, dated 2015):

What was measured:
[1] = system: Beet Armyworm (BAW) (Spodoptera exigua); assay: Bioassay on Beet Armyworm (BAW), 128-well diet tray assay; type: in vivo; conditions: for pest or weed control at 50 µg/cm2, 50 µg/cm2 / pest or weed control at 50 µg/cm2: Spodoptera exigua, read-out: BAW Rating; for pest or weed control at 50 µg/cm2, 50 µg/cm2: 168 h, % mortality, second instar larvae, 50 μg/cm^2 on artificial diet, 25° C., five to seven days, average of eight wells; for pest or weed control at 50 µg/cm2: Table 5: Prophetic Compounds Subsequently Exemplified; for BAW Rating: Table 3: Assay Results Part 1
How it was run: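 Artificial diet treated with 50 μg/cm^2 compound in 90:10 acetone-water was dried, then one to five second-instar larvae were placed per well, eight wells per compound. Trays were held at 25° C., 14:10 light-dark for five to seven days, and percent mortality averaged across wells.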

[2] = system: Cabbage Looper (CL) (Trichoplusia ni); assay: Bioassay on Cabbage Looper (CL), 128-well diet tray assay; type: in vivo; conditions: read-out: CL Rating; for pest or weed control at 50 µg/cm2, 50 µg/cm2: 168 h, % mortality, second instar larvae, 50 μg/cm^2 on artificial diet, 25° C., five to seven days, average of eight wells; for pest or weed control at 50 µg/cm2: Table 5: Prophetic Compounds Subsequently Exemplified
Method: Certain molecules disclosed in this document were tested against BAW, CEW and CL using procedures described in the following examples. In the reporting of the results, the “BAW & CEW & CL Rating Table” was used (See Table Section).
Bioassays on CL (Trichoplusia ni)
Bioassays on CL were conducted using a 128-well diet tray assay. One to five second instar CL larvae were placed in each well (3 mL) of the diet tray that had been previously filled with 1 mL of artificial diet to which 50 μg/cm^2 of the test compound (dissolved in 50 μL of 90:10 acetone-water mixture) had been applied (to each of eight wells) and then allowed to dry. Trays were covered with a clear self-adhesive cover, and held at 25° C., 14:10 light-dark for five to seven days. Percent mortality was recorded for the larvae in each well; activity in the eight wells was then averaged. The results are indicated in the table entitled “Table 4: Assay Results Part 2” (See Table Section).

SMILES | pest or weed control at 50 µg/cm2 [1] [%] | pest or weed control at 50 µg/cm2 [2] [%] | BAW Rating [1] | also measured
O=C(NC1(C(=O)NCC(F)(F)F)CC1)c1ccc(/C=C/[C@H](c2cc(Cl)c(Cl)c(Cl)c2)C(F)(F)F)cc1C(F)(F)F (single isomer, unassigned) [Compound F8A] |  |  |  | pest or weed control at 50 µg/cm2, 50 µg/cm2 [1]: 50 to 100%; pest or weed control at 50 µg/cm2, 50 µg/cm2 [2]: 50 to 100%
O=C(NC1(C(=O)NCC(F)(F)F)CC1)c1ccc(/C=C/[C@@H](c2cc(Cl)c(Cl)c(Cl)c2)C(F)(F)F)cc1C(F)(F)F (single isomer, unassigned) [Compound F8B] |  |  |  | pest or weed control at 50 µg/cm2, 50 µg/cm2 [1]: 50 to 100%; pest or weed control at 50 µg/cm2, 50 µg/cm2 [2]: 50 to 100%
Cc1cc(/C=C/C(c2cc(Cl)c(Cl)c(Cl)c2)C(F)(F)F)ccc1C(=O)NC1(C(=O)NCC(F)(F)F)CC1 (centres unmarked) [Compound F2] |  |  |  | pest or weed control at 50 µg/cm2, 50 µg/cm2 [1]: 50 to 100%; pest or weed control at 50 µg/cm2, 50 µg/cm2 [2]: 50 to 100%
O=C(NC1(C(=O)NCC(F)(F)F)CC1)c1ccc(/C=C/C(c2cc(Cl)c(Cl)c(Cl)c2)C(F)(F)F)cc1Br (centres unmarked) [Compound F3] |  |  |  | pest or weed control at 50 µg/cm2, 50 µg/cm2 [1]: 50 to 100%; pest or weed control at 50 µg/cm2, 50 µg/cm2 [2]: 50 to 100%
O=C(NC1(C(=O)NCC(F)(F)F)CCC1)c1ccc(/C=C/C(c2cc(Cl)c(Cl)c(Cl)c2)C(F)(F)F)cc1Cl (centres unmarked) [Compound F4] |  |  |  | pest or weed control at 50 µg/cm2, 50 µg/cm2 [1]: 50 to 100%; pest or weed control at 50 µg/cm2, 50 µg/cm2 [2]: 50 to 100%
O=C(NC1(C(=O)NCC(F)(F)F)CCC1)c1ccc(/C=C/C(c2cc(Cl)c(Cl)c(Cl)c2)C(F)(F)F)cc1Br (centres unmarked) [Compound F5] |  |  |  | pest or weed control at 50 µg/cm2, 50 µg/cm2 [1]: 50 to 100%; pest or weed control at 50 µg/cm2, 50 µg/cm2 [2]: 50 to 100%
O=C(NC1(C(=S)NCC(F)(F)F)CC1)c1ccc(/C=C/C(c2cc(Cl)c(Cl)c(Cl)c2)C(F)(F)F)cc1C(F)(F)F (centres unmarked) [Compound F6, (E)-4-(4,4,4-Trifluoro-3-(3,4,5-trichlorophenyl)but-1-enyl)-N-(1-(2,2,2-trifluoroethylcarbamothioyl)cyclopropyl)-2-(trifluoromethyl)benzamide] |  |  |  | pest or weed control at 50 µg/cm2, 50 µg/cm2 [1]: 50 to 100%; pest or weed control at 50 µg/cm2, 50 µg/cm2 [2]: 50 to 100%
N#CC1(NC(=O)c2ccc(/C=C/C(c3cc(Cl)c(Cl)c(Cl)c3)C(F)(F)F)cc2Br)CC1 (centres unmarked) [Compound F7, (E)-2-Bromo-N-(1-cyanocyclopropyl)-4-(4,4,4-trifluoro-3-(3,4,5-trichlorophenyl)but-1-en-1-yl)benzamide] |  |  |  | pest or weed control at 50 µg/cm2, 50 µg/cm2 [1]: 50 to 100%; pest or weed control at 50 µg/cm2, 50 µg/cm2 [2]: 50 to 100%
O=C(NC1(C(=O)NCC(F)(F)F)CC1)c1ccc(/C=C/C(c2cc(Cl)c(Cl)c(Cl)c2)C(F)(F)F)cc1Cl (centres unmarked) [Compound F8] |  |  |  | pest or weed control at 50 µg/cm2, 50 µg/cm2 [1]: 50 to 100%; pest or weed control at 50 µg/cm2, 50 µg/cm2 [2]: 50 to 100%
O=C(NC1CC1(F)F)c1ccc(/C=C/C(c2cc(Cl)c(Cl)c(Cl)c2)C(F)(F)F)cc1Br (centres unmarked) [Compound P31] | 50 to 100 | 50 to 100 |  | 
O=C(NC1(C(=O)NCC(F)(F)F)CC1)c1ccc(/C=C/C(c2ccc(F)c(F)c2F)C(F)(F)F)cc1C(F)(F)F (centres unmarked) [Compound P65] | 50 to 100 | 50 to 100 |  | 
O=C(NC1(C(=O)NCC(F)(F)F)CC1)c1ccc(/C=C/C(c2cc(Cl)c(Cl)cc2Cl)C(F)(F)F)cc1Br (centres unmarked) [Compound P108] | 50 to 100 | 50 to 100 |  | 
O=C(NC1(C(=O)NCC(F)(F)F)CC1)c1ccc(/C=C/C(c2cc(Cl)c(Cl)cc2Cl)C(F)(F)F)cc1C(F)(F)F (centres unmarked) [Compound P110] | 50 to 100 | 50 to 100 |  | 
O=C(NC1(C(=O)NCC(F)(F)F)CC1)c1ccc(/C=C/C(c2cccc(OC(F)(F)F)c2)C(F)(F)F)cc1Br (centres unmarked) [Compound P153] | 50 to 100 | 50 to 100 |  | 
O=C(NC1(C(=O)NCC(F)(F)F)CC1)c1ccc(/C=C/C(c2cccc(OC(F)(F)F)c2)C(F)(F)F)cc1C(F)(F)F (centres unmarked) [Compound P155] | 50 to 100 | 50 to 100 |  | 
O=C(NC1(C(=O)NCC(F)(F)F)CC1)c1ccc(/C=C/C(c2cc(F)cc(Br)c2)C(F)(F)F)cc1Br (centres unmarked) [Compound P198] | 50 to 100 | 50 to 100 |  | 
O=C(NC1(C(=O)NCC(F)(F)F)CC1)c1ccc(/C=C/C(c2cc(F)cc(Br)c2)C(F)(F)F)cc1C(F)(F)F (centres unmarked) [Compound P200] | 50 to 100 | 50 to 100 |  | 
Cc1cc(C(/C=C/c2ccc(C(=O)NC3(C(=O)NCC(F)(F)F)CC3)c(Br)c2)C(F)(F)F)ccc1Cl (centres unmarked) [Compound P243] | 50 to 100 | 50 to 100 |  | 
Cc1cc(C(/C=C/c2ccc(C(=O)NC3(C(=O)NCC(F)(F)F)CC3)c(C(F)(F)F)c2)C(F)(F)F)ccc1Cl (centres unmarked) [Compound P245] | 50 to 100 | 50 to 100 |  | 
Cc1cc(C(/C=C/c2ccc(C(=O)NC3(C(=O)NCC(F)(F)F)CC3)c(Br)c2)C(F)(F)F)cc(C)c1F (centres unmarked) [Compound P333] | 50 to 100 | 50 to 100 |  | 
Cc1cc(C(/C=C/c2ccc(C(=O)NC3(C(=O)NCC(F)(F)F)CC3)c(C(F)(F)F)c2)C(F)(F)F)cc(C)c1F (centres unmarked) [Compound P335] | 50 to 100 | 50 to 100 |  | 
Cc1cc(C(/C=C/c2ccc(C(=O)NC3(C(=O)NCC(F)(F)F)CC3)c(C(F)(F)F)c2)C(F)(F)F)ccc1F (centres unmarked) [Compound P336] | 50 to 100 | 50 to 100 |  | 

SMILES | pest or weed control at 50 µg/cm2 [1] [%] | pest or weed control at 50 µg/cm2 [2] [%] | BAW Rating [1] | also measured
O=C(NC1(C(=O)NCC(F)(F)F)CC1)c1ccc(/C=C/C(c2cc(Cl)cc(Br)c2)C(F)(F)F)cc1Br (centres unmarked) [Compound P378] | 50 to 100 | 50 to 100 |  | 
O=C(NC1(C(=O)NCC(F)(F)F)CC1)c1ccc(/C=C/C(c2cc(Cl)cc(Br)c2)C(F)(F)F)cc1C(F)(F)F (centres unmarked) [Compound P380] | 50 to 100 | 50 to 100 |  | 
O=C(NC1(C(=O)NCC(F)(F)F)CC1)c1ccc(/C=C/C(c2ccc(Br)c(Br)c2)C(F)(F)F)cc1Br (centres unmarked) [Compound P423] | 50 to 100 | 50 to 100 |  | 
O=C(NC1(C(=O)NCC(F)(F)F)CC1)c1ccc(/C=C/C(c2ccc(Br)c(Br)c2)C(F)(F)F)cc1C(F)(F)F (centres unmarked) [Compound P425] | 50 to 100 | 50 to 100 |  | 
O=C(NC1(C(=O)NCC(F)(F)F)CC1)c1ccc(/C=C/C(c2ccc(Cl)c([N+](=O)[O-])c2)C(F)(F)F)cc1Br (centres unmarked) [Compound P468] | 50 to 100 | 50 to 100 |  | 
N#Cc1cc(/C=C/C(c2cc(Cl)c(Cl)c(Cl)c2)C(F)(F)F)ccc1-n1cnc(NC(=O)C2CC2)n1 (centres unmarked) [DC43, (E)-N-(1-(2-Cyano-4-(4,4,4-trifluoro-3-(3,4,5-trichlorophenyl)but-1-en-1-yl)phenyl)-1H-1,2,4-triazol-3-yl)cyclopropanecarboxamide] |  |  | A (50-100) | 
Cc1cc(/C=C/C(c2cc(Cl)cc(Cl)c2)C(F)(F)F)cc(C#N)c1-n1cncn1 (centres unmarked) [DC44] |  |  | A (50-100) | 
Cc1cc(/C=C/C(c2cc(Cl)c(Cl)c(Cl)c2)C(F)(F)F)cc(C#N)c1-n1cncn1 (centres unmarked) [DC45] |  |  | A (50-100) | 
N#Cc1cc(/C=C\C(c2cc(Cl)c(F)c(Cl)c2)C(F)(F)F)ccc1-n1cncn1 (centres unmarked) [DC46] |  |  | A (50-100) | 
FC(F)(F)C(/C=C/c1ccc(-n2cncn2)c(Br)c1)c1cc(Cl)cc(Cl)c1 (centres unmarked) [DC47] |  |  | A (50-100) | 
Fc1cc(/C=C/C(c2cc(Cl)cc(Cl)c2)C(F)(F)F)ccc1-n1cncn1 (centres unmarked) [DC48] |  |  | A (50-100) | 
FC(F)(F)C(/C=C/c1ccc(-n2cncn2)c(Cl)c1)c1cc(Cl)c(Cl)c(Cl)c1 (centres unmarked) [DC49] |  |  | A (50-100) | 
FC(F)(F)C(/C=C/c1ccc(-n2cncn2)c(Cl)c1)c1cc(Cl)cc(Cl)c1 (centres unmarked) [DC50] |  |  | A (50-100) | 
FC(F)(F)c1cc(/C=C/C(c2cc(Cl)cc(Cl)c2)C(F)(F)F)ccc1-n1cncn1 (centres unmarked) [DC51] |  |  | A (50-100) | 
CNc1cc(/C=C/C(c2cc(Cl)cc(Cl)c2)C(F)(F)F)ccc1-n1cncn1 (centres unmarked) [DC57, (E)-5-(3-(3,5-Dichlorophenyl)-4,4,4-trifluorobut-1-en-1-yl)-N-methyl-2-(1H-1,2,4-triazol-1-yl)aniline] |  |  | A (50-100) | 
CCOC(=O)c1cc(/C=C/C(c2cc(Cl)cc(Cl)c2)C(F)(F)F)ccc1-n1cncn1 (centres unmarked) [DC60] |  |  | A (50-100) | 
Cc1cc(/C=C/C(c2cc(Cl)cc(Cl)c2)C(F)(F)F)ccc1-n1cncn1 (centres unmarked) [DC62] |  |  | A (50-100) | 
Cc1cc(/C=C/C(c2cc(Cl)c(Cl)c(Cl)c2)C(F)(F)F)ccc1-n1cncn1 (centres unmarked) [DC63] |  |  | A (50-100) | 
FC(F)(F)C(/C=C/c1ccc(-n2cncn2)cc1Cl)c1cc(Cl)c(Cl)c(Cl)c1 (centres unmarked) [DC66] |  |  | A (50-100) | 
FC(F)(F)C(/C=C/c1ccc(-n2cncn2)cc1Cl)c1cc(Cl)cc(Cl)c1 (centres unmarked) [DC67] |  |  | A (50-100) | 
C/C(=C\C(c1cc(Cl)cc(Cl)c1)C(F)(F)F)c1ccc(-n2cncn2)cc1 (centres unmarked) [DC68, (E)-1-(4-(4-(3,5-Dichlorophenyl)-5,5,5-trifluoropent-2-en-2-yl)phenyl)-1H-1,2,4-triazole] |  |  | A (50-100) | 
COC(/C=C/c1ccc(-n2cncn2)cc1)(c1cc(Cl)cc(Cl)c1)C(F)(F)F (centres unmarked) [DC70, (E)-1-(4-(3-(3,5-Dichlorophenyl)-4,4,4-trifluoro-3-methoxybut-1-en-1-yl)phenyl)-1H-1,2,4-triazole] |  |  | A (50-100) | 
